Experimental data reported in patent US20260184700A1, “PDK1 REGULATORY COMPOUND AND COMPOSITION CONTAINING THE SAME” (PROVIBIO CO., LTD., priority 2024, published 2026).

Test system: T cells isolated from mouse spleen
Experiment: T cell proliferation inhibition, CFSE flow cytometry, CD3/CD28 activation
Type: cell-based
Details: compound 10 nM, CD3/CD28 activated, 3 days
Method: To verify the T cell proliferation inhibitory effect of the compounds according to the present invention, the following experiment was performed based on flow cytometry analysis using carboxyfluorescein diacetate succinimidyl ester (CFSE), a fluorescent dye that binds to intracellular molecules via covalent bonds.
Spleens were extracted from 7-week-old C57BL/6 mice, ground, and then separated into single cells using a strainer (40 μm pore size, SPL). Red blood cells were removed using ACK (Ammonium-Chloride-Potassium) lysis buffer to isolate white blood cells.
Finally, using a MACS Magnetic Stand and LS column, T cells were isolated from the spleen.
The T cells isolated from the spleen were resuspended in 1 mL of free medium (RPMI-1640+200 U/mL penicillin+200 μg/mL streptomycin), and 0.3 μL of CFSE (10 mM) was added. The mixture was incubated at 37° C. for 5 minutes.
Free medium (10 mL) was added to stop the reaction, and the cells were centrifuged to obtain the cell pellet.
RPMI 1640 medium containing 10% FBS, 100 U/mL penicillin, 100 μg/mL streptomycin, and resuspended the cells. The cells were then seeded into a 96-well plate at a density of 2×10^5 cells per well and activated with CD3 and CD28 antibodies (0.5 μg/mL each) to activate T cells.
The compound diluted in DMSO was added at concentrations of 10 nM, 100 nM, 1 μM, 10 μM, 30 μM, and 50 μM, with three wells per concentration, and cultured at 37° C. and 5% CO2 for three days. The cells were then analyzed using a FACS Canto instrument.
The proliferation inhibition rate (%) was calculated using the following formula: […]

| Structure (SMILES) | Proliferation inhibition rate (%) |
| --- | --- |
| CC(C)N1CCN(CCCCCCCCCCCCNC(=O)c2cccnc2N)CC1 [Compound 104, 2-Amino-N-(12-(4-isopropylpiperazin-1-yl)dodecyl) nicotinamide] | 100.00 |
| CC(C)(C)OC(=O)N1CCN(CCCCCCCCCCCCNC(=O)c2cccnc2N)CC1 [Compound 111, tert-butyl-4-(12-(2-aminonicotinamido)dodecyl) piperazine-1-carboxylate] | 0.00 |
| CC1(C)CCN(CCCCCCCCCCCCNC(=O)c2cccnc2N)C1 [Compound 22, 2-Amino-N-(12-(3,3-dimethylpyrrolidin-1-yl)dodecyl) nicotinamide] | −0.80 |
| Nc1ncccc1C(=O)NCCCCCCCCCCCCN1CC=CC1 [Compound 129, 2-amino-N-(12-(2,5-dihydro-1H-pyrrol-1-yl)dodecyl) nicotinamide] | 0.00 |
| CN1CCN(CCCCCCCCCCCCNC(=O)c2cccnc2F)CC1 [Compound 121, 2-fluoro-N-(12-(4-methylpiperazin-1-yl)dodecyl) nicotinamide] | 0.00 |
| Nc1ncccc1C(=O)NCCCCCCCCCCCCN1CC(F)(F)C1 [Compound 122, 2-Amino-N-(12-(3,3-difluoroazetidin-1-yl)dodecyl) nicotinamide] | 0.00 |

Same assay, conditions: compound 10 nM, CD3/CD28 activated, 3 days, listed as K-PB-48, 0.01 µM

| Structure (SMILES) | Proliferation inhibition rate (%) |
| --- | --- |
| COC1CCN(CCCCCCCCCCCCNC(=O)c2cccnc2N)C1 (centres unmarked) [Compound 126, 2-amino-N-(12-(3-methoxypyrrolidin-1-yl)dodecyl) nicotinamide] | 0.00 |

Same assay, conditions: compound 10 nM, CD3/CD28 activated, 3 days, listed as PBK-2024-004, 0.01 µM

| Structure (SMILES) | Proliferation inhibition rate (%) |
| --- | --- |
| Nc1ncccc1C(=O)NCCCCCCCCCCCCN1CCc2ccccc2C1 [Compound 17, 2-Amino-N-(12-(3,4-dihydroisoquinolin-2(1H)-yl)dodecyl) nicotinamide] | 0.00 |

Same assay, conditions: compound 10 nM, CD3/CD28 activated, 3 days, listed as PBK-2024-024, 0.01 µM

| Structure (SMILES) | Proliferation inhibition rate (%) |
| --- | --- |
| COC1CCN(CCCCCCCCCCCCNC(=O)c2cccnc2N)C1 (centres unmarked) [Compound 32, 2-Amino-N-(12-(3-methoxypyrrolidin-1-yl)dodecyl) nicotinamide] | 0.29 |

Same assay, conditions: compound 100 nM, CD3/CD28 activated, 3 days

| Structure (SMILES) | Proliferation inhibition rate (%) |
| --- | --- |
| COC1CCN(CCCCCCCCCCCCNC(=O)c2cccnc2N)C1 (centres unmarked) [Compound 126, 2-amino-N-(12-(3-methoxypyrrolidin-1-yl)dodecyl) nicotinamide] | 100.00 |
| CC(C)N1CCN(CCCCCCCCCCCCNC(=O)c2cccnc2N)CC1 [Compound 104, 2-Amino-N-(12-(4-isopropylpiperazin-1-yl)dodecyl) nicotinamide] | 100.00 |
| CC(C)(C)OC(=O)N1CCN(CCCCCCCCCCCCNC(=O)c2cccnc2N)CC1 [Compound 111, tert-butyl-4-(12-(2-aminonicotinamido)dodecyl) piperazine-1-carboxylate] | 100.00 |
| CC1(C)CCN(CCCCCCCCCCCCNC(=O)c2cccnc2N)C1 [Compound 22, 2-Amino-N-(12-(3,3-dimethylpyrrolidin-1-yl)dodecyl) nicotinamide] | 100.00 |
| Nc1ncccc1C(=O)NCCCCCCCCCCCCN1CC=CC1 [Compound 129, 2-amino-N-(12-(2,5-dihydro-1H-pyrrol-1-yl)dodecyl) nicotinamide] | 90.00 |
| CN1CCN(CCCCCCCCCCCCNC(=O)c2cccnc2F)CC1 [Compound 121, 2-fluoro-N-(12-(4-methylpiperazin-1-yl)dodecyl) nicotinamide] | 0.00 |
| Nc1ncccc1C(=O)NCCCCCCCCCCCCN1CC(F)(F)C1 [Compound 122, 2-Amino-N-(12-(3,3-difluoroazetidin-1-yl)dodecyl) nicotinamide] | 0.00 |

Same assay, conditions: compound 100 nM, CD3/CD28 activated, 3 days, listed as PBK-2024-004, 0.1 µM

| Structure (SMILES) | Proliferation inhibition rate (%) |
| --- | --- |
| Nc1ncccc1C(=O)NCCCCCCCCCCCCN1CCc2ccccc2C1 [Compound 17, 2-Amino-N-(12-(3,4-dihydroisoquinolin-2(1H)-yl)dodecyl) nicotinamide] | −14.00 |

Same assay, conditions: compound 1 μM, CD3/CD28 activated, 3 days

| Structure (SMILES) | Proliferation inhibition rate (%) |
| --- | --- |
| COC1CCN(CCCCCCCCCCCCNC(=O)c2cccnc2N)C1 (centres unmarked) [Compound 126, 2-amino-N-(12-(3-methoxypyrrolidin-1-yl)dodecyl) nicotinamide] | 100.00 |
| CC(C)N1CCN(CCCCCCCCCCCCNC(=O)c2cccnc2N)CC1 [Compound 104, 2-Amino-N-(12-(4-isopropylpiperazin-1-yl)dodecyl) nicotinamide] | 100.00 |
| CC(C)(C)OC(=O)N1CCN(CCCCCCCCCCCCNC(=O)c2cccnc2N)CC1 [Compound 111, tert-butyl-4-(12-(2-aminonicotinamido)dodecyl) piperazine-1-carboxylate] | 100.00 |
| CC1(C)CCN(CCCCCCCCCCCCNC(=O)c2cccnc2N)C1 [Compound 22, 2-Amino-N-(12-(3,3-dimethylpyrrolidin-1-yl)dodecyl) nicotinamide] | 100.00 |
| Nc1ncccc1C(=O)NCCCCCCCCCCCCN1CC=CC1 [Compound 129, 2-amino-N-(12-(2,5-dihydro-1H-pyrrol-1-yl)dodecyl) nicotinamide] | 100.00 |
| CN1CCN(CCCCCCCCCCCCNC(=O)c2cccnc2F)CC1 [Compound 121, 2-fluoro-N-(12-(4-methylpiperazin-1-yl)dodecyl) nicotinamide] | 0.00 |
| Nc1ncccc1C(=O)NCCCCCCCCCCCCN1CC(F)(F)C1 [Compound 122, 2-Amino-N-(12-(3,3-difluoroazetidin-1-yl)dodecyl) nicotinamide] | 80.00 |

Same assay, conditions: compound 1 μM, CD3/CD28 activated, 3 days, listed as PBK-2024-004, 1 µM

| Structure (SMILES) | Proliferation inhibition rate (%) |
| --- | --- |
| Nc1ncccc1C(=O)NCCCCCCCCCCCCN1CCc2ccccc2C1 [Compound 17, 2-Amino-N-(12-(3,4-dihydroisoquinolin-2(1H)-yl)dodecyl) nicotinamide] | 100.00 |

Same assay, conditions: compound 10 μM, CD3/CD28 activated, 3 days

| Structure (SMILES) | Proliferation inhibition rate (%) |
| --- | --- |
| COC1CCN(CCCCCCCCCCCCNC(=O)c2cccnc2N)C1 (centres unmarked) [Compound 126, 2-amino-N-(12-(3-methoxypyrrolidin-1-yl)dodecyl) nicotinamide] | 100.00 |
| CC(C)N1CCN(CCCCCCCCCCCCNC(=O)c2cccnc2N)CC1 [Compound 104, 2-Amino-N-(12-(4-isopropylpiperazin-1-yl)dodecyl) nicotinamide] | 100.00 |
| CC(C)(C)OC(=O)N1CCN(CCCCCCCCCCCCNC(=O)c2cccnc2N)CC1 [Compound 111, tert-butyl-4-(12-(2-aminonicotinamido)dodecyl) piperazine-1-carboxylate] | 100.00 |
| CC1(C)CCN(CCCCCCCCCCCCNC(=O)c2cccnc2N)C1 [Compound 22, 2-Amino-N-(12-(3,3-dimethylpyrrolidin-1-yl)dodecyl) nicotinamide] | 100.00 |
| Nc1ncccc1C(=O)NCCCCCCCCCCCCN1CC=CC1 [Compound 129, 2-amino-N-(12-(2,5-dihydro-1H-pyrrol-1-yl)dodecyl) nicotinamide] | 100.00 |
| CN1CCN(CCCCCCCCCCCCNC(=O)c2cccnc2F)CC1 [Compound 121, 2-fluoro-N-(12-(4-methylpiperazin-1-yl)dodecyl) nicotinamide] | 30.00 |
| Nc1ncccc1C(=O)NCCCCCCCCCCCCN1CC(F)(F)C1 [Compound 122, 2-Amino-N-(12-(3,3-difluoroazetidin-1-yl)dodecyl) nicotinamide] | 100.00 |

Same assay, conditions: compound 10 μM, CD3/CD28 activated, 3 days, listed as PBK-2024-004, 10 µM

| Structure (SMILES) | Proliferation inhibition rate (%) |
| --- | --- |
| Nc1ncccc1C(=O)NCCCCCCCCCCCCN1CCc2ccccc2C1 [Compound 17, 2-Amino-N-(12-(3,4-dihydroisoquinolin-2(1H)-yl)dodecyl) nicotinamide] | 100.00 |

Same assay, conditions: compound 30 μM, CD3/CD28 activated, 3 days

| Structure (SMILES) | Proliferation inhibition rate (%) |
| --- | --- |
| COC1CCN(CCCCCCCCCCCCNC(=O)c2cccnc2N)C1 (centres unmarked) [Compound 126, 2-amino-N-(12-(3-methoxypyrrolidin-1-yl)dodecyl) nicotinamide] | 100.00 |
| CC(C)N1CCN(CCCCCCCCCCCCNC(=O)c2cccnc2N)CC1 [Compound 104, 2-Amino-N-(12-(4-isopropylpiperazin-1-yl)dodecyl) nicotinamide] | 100.00 |
| CC(C)(C)OC(=O)N1CCN(CCCCCCCCCCCCNC(=O)c2cccnc2N)CC1 [Compound 111, tert-butyl-4-(12-(2-aminonicotinamido)dodecyl) piperazine-1-carboxylate] | 100.00 |
| CC1(C)CCN(CCCCCCCCCCCCNC(=O)c2cccnc2N)C1 [Compound 22, 2-Amino-N-(12-(3,3-dimethylpyrrolidin-1-yl)dodecyl) nicotinamide] | 100.00 |
| Nc1ncccc1C(=O)NCCCCCCCCCCCCN1CC=CC1 [Compound 129, 2-amino-N-(12-(2,5-dihydro-1H-pyrrol-1-yl)dodecyl) nicotinamide] | 100.00 |
| CN1CCN(CCCCCCCCCCCCNC(=O)c2cccnc2F)CC1 [Compound 121, 2-fluoro-N-(12-(4-methylpiperazin-1-yl)dodecyl) nicotinamide] | 100.00 |
| Nc1ncccc1C(=O)NCCCCCCCCCCCCN1CC(F)(F)C1 [Compound 122, 2-Amino-N-(12-(3,3-difluoroazetidin-1-yl)dodecyl) nicotinamide] | 100.00 |

Same assay, conditions: compound 50 μM, CD3/CD28 activated, 3 days

| Structure (SMILES) | Proliferation inhibition rate (%) |
| --- | --- |
| COC1CCN(CCCCCCCCCCCCNC(=O)c2cccnc2N)C1 (centres unmarked) [Compound 126, 2-amino-N-(12-(3-methoxypyrrolidin-1-yl)dodecyl) nicotinamide] | 100.00 |
| CC(C)N1CCN(CCCCCCCCCCCCNC(=O)c2cccnc2N)CC1 [Compound 104, 2-Amino-N-(12-(4-isopropylpiperazin-1-yl)dodecyl) nicotinamide] | 100.00 |
| CC(C)(C)OC(=O)N1CCN(CCCCCCCCCCCCNC(=O)c2cccnc2N)CC1 [Compound 111, tert-butyl-4-(12-(2-aminonicotinamido)dodecyl) piperazine-1-carboxylate] | 100.00 |
| CC1(C)CCN(CCCCCCCCCCCCNC(=O)c2cccnc2N)C1 [Compound 22, 2-Amino-N-(12-(3,3-dimethylpyrrolidin-1-yl)dodecyl) nicotinamide] | 100.00 |
| Nc1ncccc1C(=O)NCCCCCCCCCCCCN1CC=CC1 [Compound 129, 2-amino-N-(12-(2,5-dihydro-1H-pyrrol-1-yl)dodecyl) nicotinamide] | 100.00 |
| CN1CCN(CCCCCCCCCCCCNC(=O)c2cccnc2F)CC1 [Compound 121, 2-fluoro-N-(12-(4-methylpiperazin-1-yl)dodecyl) nicotinamide] | 100.00 |
| Nc1ncccc1C(=O)NCCCCCCCCCCCCN1CC(F)(F)C1 [Compound 122, 2-Amino-N-(12-(3,3-difluoroazetidin-1-yl)dodecyl) nicotinamide] | 100.00 |
